Data from the supplement of paper PMC10307832.

Columns and labels:
Test in all cases: relative viability (nuclei count vs DMSO), 5 days (fraction); higher = more cells survive
KIN001-266 + Phenformin = compound: CCN1CCC(CC1)N2C=C(N=N2)CNC3=CC4=C(C(=CN=C4C(=C3)Cl)C#N)NC5=CC(=C(C=C5)F)Cl [KIN001-266] + N=C(N)NC(=N)NCCc1ccccc1 [Phenformin] (partner 250 µM)
Summary of the method: (§1)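 Cells from lung cancer lines were seeded into 1536-well plates and, one day later, dosed by pin tool. Treatments were either a single drug or a fixed dose of an anchor drug with five library-drug doses (not always all listed) in √10 steps. After 5 days, nuclei were stained in a one-step fixation (final 0.05% Triton X-100, 1% formaldehyde, 1 ug/ml Hoechst) and counted on 4× images, and relative viability is the treated-to-vehicle nuclei ratio, as the median of duplicate plates.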

KIN001-266 + OSI-027 = compound: CCN1CCC(CC1)N2C=C(N=N2)CNC3=CC4=C(C(=CN=C4C(=C3)Cl)C#N)NC5=CC(=C(C=C5)F)Cl [KIN001-266] + COc1cccc2cc(-c3nc([C@H]4CC[C@H](C(=O)O)CC4)n4ncnc(N)c34)[nH]c12 [OSI-027] (partner 0.5 µM)
Summary of the method: as §1

KIN001-266 + Trametinib = compound: CCN1CCC(CC1)N2C=C(N=N2)CNC3=CC4=C(C(=CN=C4C(=C3)Cl)C#N)NC5=CC(=C(C=C5)F)Cl [KIN001-266] + CC(=O)Nc1cccc(-n2c(=O)n(C3CC3)c(=O)c3c(Nc4ccc(I)cc4F)n(C)c(=O)c(C)c32)c1 [Trametinib] (partner 0.02 µM)
Summary of the method: as §1

KIN001-266 + Crizotinib = compound: CCN1CCC(CC1)N2C=C(N=N2)CNC3=CC4=C(C(=CN=C4C(=C3)Cl)C#N)NC5=CC(=C(C=C5)F)Cl [KIN001-266] + C[C@@H](Oc1cc(-c2cnn(C3CCNCC3)c2)cnc1N)c1c(Cl)ccc(F)c1Cl [Crizotinib] (partner 1 µM)
Summary of the method: as §1

Cell Line | relative viability (KIN001-266 + Phenformin; first compound 0.08 µM) | relative viability (KIN001-266 + Phenformin; first compound 0.253 µM) | relative viability (KIN001-266 + Phenformin; first compound 0.8 µM) | relative viability (KIN001-266 + Phenformin; first compound 2.53 µM) | relative viability (KIN001-266 + Phenformin; first compound 8 µM) | relative viability (KIN001-266 + OSI-027; first compound 0.08 µM) | relative viability (KIN001-266 + OSI-027; first compound 0.253 µM) | relative viability (KIN001-266 + OSI-027; first compound 0.8 µM) | relative viability (KIN001-266 + OSI-027; first compound 2.53 µM) | relative viability (KIN001-266 + OSI-027; first compound 8 µM) | relative viability (KIN001-266 + Trametinib; first compound 0.08 µM) | relative viability (KIN001-266 + Trametinib; first compound 0.253 µM) | relative viability (KIN001-266 + Trametinib; first compound 0.8 µM) | relative viability (KIN001-266 + Trametinib; first compound 2.53 µM) | relative viability (KIN001-266 + Trametinib; first compound 8 µM) | relative viability (KIN001-266 + Crizotinib; first compound 0.08 µM) | relative viability (KIN001-266 + Crizotinib; first compound 0.253 µM) | relative viability (KIN001-266 + Crizotinib; first compound 0.8 µM) | relative viability (KIN001-266 + Crizotinib; first compound 2.53 µM) | relative viability (KIN001-266 + Crizotinib; first compound 8 µM)
HCC-366 | 0.657 | 0.644 | 0.596 | 0.567 | 0.509 | 1.14 | 0.977 | 0.936 | 0.826 | 0.412 | 0.446 | 0.468 | 0.32 | 0.334 | 0.277 | 0.52 | 0.514 | 0.478 | 0.482 | 0.5
HCC-827 | 0.439 | 0.404 | 0.189 | 0.318 | 0.286 | 0.682 | 0.787 | 0.495 | 0.734 | 0.661 | 0.489 | 0.577 | 0.468 | 0.545 | 0.49 | 0.944 | 0.921 | – | 0.931 | 0.849
HOP-62 | 0.683 | 0.694 | 0.688 | 0.734 | 0.629 | 0.888 | 0.893 | 0.877 | 0.765 | 0.797 | 0.391 | 0.387 | 0.379 | 0.311 | 0.293 | 0.823 | 1.09 | 0.924 | 0.963 | 0.971
IA-LM | – | – | – | – | – | – | – | – | – | – | – | – | – | – | – | 0.885 | 0.748 | 0.693 | 0.753 | 0.585
LC-2-ad | 0.622 | 0.647 | 0.629 | 0.637 | 0.576 | 0.844 | 0.94 | 0.825 | 0.776 | 0.77 | 0.924 | 0.938 | 0.918 | 0.897 | 0.931 | 0.43 | 0.546 | 0.377 | 0.447 | 0.429
LCLC-97TM1 | 0.414 | 0.442 | 0.413 | 0.41 | 0.407 | 0.636 | 0.69 | 0.45 | 0.557 | 0.532 | 0.18 | 0.185 | 0.199 | – | 0.164 | 0.327 | 0.289 | 0.242 | 0.21 | 0.24
LCLC-103H | 0.389 | 0.28 | 0.285 | 0.361 | 0.332 | 0.49 | 0.469 | 0.452 | 0.484 | 0.469 | 0.715 | 0.73 | 0.592 | 0.645 | 0.668 | 1.05 | 1.06 | 1.01 | 1.02 | 0.927
LK-2 | 0.538 | 0.352 | 0.342 | 0.281 | 0.288 | 0.215 | 0.187 | 0.199 | 0.168 | 0.222 | 0.891 | 0.781 | 0.877 | 0.847 | 0.721 | 0.229 | – | 0.219 | – | 0.239
LOU-NH91 | 0.716 | 0.737 | 0.489 | 0.637 | 0.552 | 0.753 | 0.76 | 0.434 | 0.608 | 0.546 | 0.83 | 0.753 | 0.698 | 0.727 | 0.748 | 0.75 | 0.694 | 0.576 | 0.683 | 0.647
LU99A | 0.971 | 0.805 | 0.815 | 0.649 | 0.682 | 0.285 | 0.303 | 0.301 | 0.269 | 0.29 | 0.546 | 0.489 | 0.494 | 0.552 | 0.458 | 0.662 | 0.519 | 0.515 | 0.55 | 0.522
LXF-289 | 0.497 | 0.522 | 0.497 | 0.534 | 0.54 | 0.788 | 0.843 | 0.775 | 0.788 | 0.678 | 0.678 | 0.683 | 0.683 | 0.679 | 0.708 | 0.819 | 0.801 | 0.77 | 0.826 | 0.76
NCI-H522 | 0.656 | 0.641 | 0.653 | 0.629 | 0.591 | 0.879 | 0.74 | 0.677 | 0.659 | 0.659 | 0.78 | 0.907 | 0.797 | 0.638 | 0.706 | – | – | – | – | –
NCI-H1395 | 0.453 | 0.421 | 0.503 | 0.417 | 0.442 | 0.719 | 0.761 | 0.715 | 0.594 | 0.591 | 1.02 | 1.11 | 1.08 | 0.925 | 0.985 | – | – | – | – | –
NCI-H1563 | 0.663 | 0.694 | 0.669 | 0.583 | 0.62 | 0.794 | 0.745 | 0.875 | 0.758 | 0.756 | – | – | – | – | – | 0.877 | 0.799 | 0.95 | 0.852 | 0.879
NCI-H1648 | – | – | – | – | – | 0.28 | 0.256 | 0.273 | 0.257 | 0.273 | 0.564 | 0.508 | 0.552 | 0.46 | 0.61 | – | – | – | – | –
NCI-H1703 | – | – | – | – | – | – | – | – | – | – | – | – | – | – | – | 0.965 | 0.675 | 0.63 | 0.457 | 0.371
NCI-H1793 | 0.418 | 0.324 | 0.25 | 0.352 | 0.251 | 0.332 | 0.254 | 0.231 | 0.258 | 0.204 | 0.436 | 0.452 | – | 0.39 | 0.299 | – | – | – | – | –
NCI-H2342 | 0.638 | 0.572 | 0.537 | 0.531 | 0.642 | 0.607 | 0.626 | 0.564 | 0.708 | 0.754 | 0.922 | 0.868 | 0.848 | 1.01 | 1.22 | – | – | – | – | –
SW 900 | 0.617 | 0.564 | 0.537 | 0.564 | 0.357 | 0.738 | 0.366 | 0.551 | 0.485 | 0.325 | 0.83 | 0.727 | 1.02 | 0.812 | 0.324 | – | – | – | – | –
